Experimental data as given in US20250101485A1, “METHODS OF PRODUCING C[…] ACID WHEY” (priority 2022, published 2025).
“Also recorded” adds a separate entry of the source.

Experiments:
lycopene cyclase (CarRP) [1] = target: T1, lycopene cyclase (CarRP) (Mucor circinelloides f. lusitanicus, UniProt Q9UUQ6); assay: In vitro enzymatic assay of lycopene cyclase in yeast microsomes; assay type: biochemical; conditions: wild type CarRP (or CarR); lycopene 50˜350 mol/L as substrate, 30° C., 16 h
T1 construct: made in house; host or cells: Yarrowia lipolytica (po1f-derived strains); crude microsomal fraction
Procedure: (§1) To test this hypothesis, possible correlations between lycopene cyclase activity and lycopene concentration were examined using an in vitro enzymatic assay that employed a yeast microsomal system, as CarRP is predicted to be a membrane protein with six transmembrane helices (FIG. 26). […] This supported the hypothesis that lycopene cyclase was substrate-inhibited, thus creating a major bottleneck in carotenoid biosynthesis.
(§2) Yeast microsomes for in vitro enzymatic assays were prepared as described previously (Pompon et al., 1996). Briefly, strains harboring wild type or mutated CarRP were grown overnight in YNB media at 30° C. and then inoculated into 200 mL YNB media to an initial OD600 of 0.1. After 24 h cultivation, cells were collected by centrifugation at 4,000 rpm for 10 min. Resuspension of the cells in TEK buffer (50 mM Tris-HCl, pH 6.8, 1 mM EDTA, 0.1 M KCl) followed, and the solution was kept at room temperature for 5 min. Afterwards, the cells were recovered by centrifugation, washed in TES buffer (50 mM Tris-HCl, pH 6.8, 1 mM EDTA, 0.6 M sorbitol), resuspended in TESM buffer (50 mM Tris-HCl, pH 6.8, 1 mM EDTA, 0.6 M sorbitol, 14 mM 2-mercaptoethanol), and left at room temperature for 10 min. […] The solution was vortex for 10 min, and the organic phase was collected by centrifugation and analyzed by HPLC.

lycopene cyclase (CarRP) [2] = target: T2, lycopene cyclase (CarRP) (Mucor circinelloides f. lusitanicus, UniProt Q9UUQ6, Y27R); assay: as above; assay type: biochemical; conditions: CarRP (or CarR) variant compared to wild type; relative catalytic activity, FIG. 16D
T2 construct: made in house; host or cells: Yarrowia lipolytica (po1f-derived strains); crude microsomal fraction
Procedure: as §1, §2

T2 sequence (Q9UUQ6 whole entry Y27R): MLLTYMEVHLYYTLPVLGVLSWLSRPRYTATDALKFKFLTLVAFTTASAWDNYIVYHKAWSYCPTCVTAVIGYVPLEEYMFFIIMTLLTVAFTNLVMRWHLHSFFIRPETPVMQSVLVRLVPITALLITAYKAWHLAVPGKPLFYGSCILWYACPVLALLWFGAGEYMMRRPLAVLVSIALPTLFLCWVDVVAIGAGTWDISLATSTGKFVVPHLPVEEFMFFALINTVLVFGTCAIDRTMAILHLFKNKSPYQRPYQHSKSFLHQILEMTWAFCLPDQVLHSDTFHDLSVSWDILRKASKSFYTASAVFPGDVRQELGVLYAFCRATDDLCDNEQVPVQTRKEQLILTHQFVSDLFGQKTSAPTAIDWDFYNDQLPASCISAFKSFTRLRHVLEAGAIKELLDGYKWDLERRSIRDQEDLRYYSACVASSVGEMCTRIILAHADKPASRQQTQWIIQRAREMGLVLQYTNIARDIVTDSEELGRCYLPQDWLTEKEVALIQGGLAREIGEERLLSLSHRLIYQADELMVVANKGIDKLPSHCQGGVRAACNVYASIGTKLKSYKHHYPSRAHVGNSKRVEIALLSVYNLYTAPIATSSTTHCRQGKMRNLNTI
T1 sequence (Q9UUQ6 whole entry): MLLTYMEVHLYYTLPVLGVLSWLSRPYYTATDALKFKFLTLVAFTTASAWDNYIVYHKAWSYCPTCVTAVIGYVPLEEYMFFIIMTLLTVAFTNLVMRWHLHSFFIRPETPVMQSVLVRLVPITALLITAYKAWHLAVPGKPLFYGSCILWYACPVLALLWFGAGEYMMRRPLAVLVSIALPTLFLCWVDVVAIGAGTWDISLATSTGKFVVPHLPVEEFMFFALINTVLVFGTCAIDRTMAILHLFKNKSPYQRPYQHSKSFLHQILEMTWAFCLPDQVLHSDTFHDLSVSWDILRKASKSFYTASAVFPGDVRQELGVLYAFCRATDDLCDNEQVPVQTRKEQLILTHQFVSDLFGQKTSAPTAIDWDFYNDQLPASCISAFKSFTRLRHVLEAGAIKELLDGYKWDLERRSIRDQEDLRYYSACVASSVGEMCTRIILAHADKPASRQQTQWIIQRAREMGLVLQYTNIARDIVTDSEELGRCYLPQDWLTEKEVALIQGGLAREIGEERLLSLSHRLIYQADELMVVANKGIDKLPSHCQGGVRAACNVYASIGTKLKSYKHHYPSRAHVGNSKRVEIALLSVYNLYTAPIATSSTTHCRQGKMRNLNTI

| Molecule | lycopene cyclase activity with respect to lycopene concentration (substrate inhibition) (lycopene cyclase (CarRP) [1]) | substrate inhibition of lycopene cyclase variant by lycopene (lycopene cyclase (CarRP) [2]) |
| --- | --- | --- |
| CC(C)=CCC/C(C)=C/C=C/C(C)=C/C=C/C(C)=C/C=C/C=C(C)/C=C/C=C(C)/C=C/C=C(\C)CCC=C(C)C [lycopene] | bi-phasic; also recorded: inhibited its downstream enzyme, lycopene cyclase, through substrate inhibition |  |
| Y27R: variant of the R domain (lycopene cyclase) of CarRP with the substitution Y27R (protein) MLLTYMEVHLYYTLPVLGVLSWLSRPRYTATDALKFKFLTLVAFTTASAWDNYIVYHKAWSYCPTCVTAVIGYVPLEEYMFFIIMTLLTVAFTNLVMRWHLHSFFIRPETPVMQSVLVRLVPITALLITAYKAWHLAVPGKPLFYGSCILWYACPVLALLWFGAGEYMMRRPLAVLVSIALPTLFLCWVDVVAIGAGTWDISLATSTGKFVVPHLPVEEFMFFALINTVLVFGTCAI |  | complete loss of substrate inhibition without reduction in enzyme activity; also recorded: completely free of substrate inhibition |
